What was measured:
[1] = biological target: T1, α1 subtype containing GABA-A receptors (Homo sapiens, UniProt P14867+P18507); experiment: Two-electrode voltage clamp electrophysiology in Xenopus oocytes, potentiation of GABA EC20 response, α1; format: cell-based; settings: 100 nM compound; for activation at 0.1 µM: read-out: Percentage of potentiation alpha1
T1 construct: expressed in transfected cells; host or cells: Xenopus laevis oocytes, cRNA injected
Method: (§1) Electrophysiology protocol: Oocytes were prepared from adult female Xenopus laevis frogs. cRNA encoding human α1, α2, α3, α5, β3 and γ2L GABAA receptor subunits was injected into the cytoplasm of stage 5 or 6 oocytes using the Robocyte Robot (Multi Channel Systems, Reutlingen, Germany). Two-electrode voltage clamp recordings were made in 96-well plates using the Robocyte Robot. Oocytes were impaled using recording heads with two glass electrodes containing 1.5 M potassium acetate and 0.5 M KCl and held at a membrane potential of −80 mV. Oocytes were continually perfused with a ND96 solution (96 mM NaCl, 2 mM KCl, 0.1 mM CaCl2, and 5 mM HEPES, pH 7.5) using a Gilson 222 XL Liquid Handler and Gilson Minipuls 3 Peristaltic Pump (Gilson Medical Electronics, Middleton, Wis., USA). The protocol consisted of three 20-s applications of GABA that gave a 20% of the maximum response (EC20: 60 μM) to allow for headroom to determine a baseline GABA response. To assess the potentiation, oocytes were first exposed to a single 1 μM chlordiazepoxide (CDP) as a potentiation standard. Oocytes with insufficient expression levels (currents below threshold) or insufficient γ2L subunit incorporation (judged by rapid desensitization upon GABA application, or by insufficient potentiation by CDP) were not included in analysis. Following this control application, a given oocyte was exposed to test compounds at 100 nM concentrations. Only one concentration of one compound was tested per oocyte. […] One skilled in the art will recognize that subtypes contribute to the effects of GABA-A modulators. Such that compounds favoring different subtypes can have different therapeutic effects. The magnitude of modulation, for example, partial modulators can influence the effects in vivo. “++” indicates a greater modulation that “+” so that at any given subtype “++” inducates a greater amount of modulation for that subtype. In some embodiments, modulation favoring alpha 1 relative to alpha2 and/or alpha 3 can have sedative hypnotic effects. In other embodiments, compounds with reduced selectivity of alpha 1 can express anxiolytic effects with less sedation. Compounds with selectivity for alpha 5 can have memory/cognition enhancing effects.

[2] = test system: central benzodiazepine receptors; experiment: Central benzodiazepine receptor binding (test of Speth et al.); settings: 1000 nM of the compound
How it was run: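 Values are percent inhibition of central benzodiazepine receptor binding at 1000 nM compound (initial single-point screen at 1.0E-09, 1.0E-07 and 1.0E-05 M). Speth et al. binding test; nonspecific binding defined with excess unlabelled ligand and subtracted from total.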

[3] = biological target: T2, α2 subtype containing GABA-A receptors (Homo sapiens, UniProt P18507+P47869); experiment: Two-electrode voltage clamp electrophysiology in Xenopus oocytes, potentiation of GABA EC20 response, α2; format: cell-based; settings: 100 nM compound; for activation at 0.1 µM: read-out: Percentage of potentiation alpha2
T2 construct: expressed in transfected cells; host or cells: Xenopus laevis oocytes, cRNA injected
T2 sequence (P47869 29-451): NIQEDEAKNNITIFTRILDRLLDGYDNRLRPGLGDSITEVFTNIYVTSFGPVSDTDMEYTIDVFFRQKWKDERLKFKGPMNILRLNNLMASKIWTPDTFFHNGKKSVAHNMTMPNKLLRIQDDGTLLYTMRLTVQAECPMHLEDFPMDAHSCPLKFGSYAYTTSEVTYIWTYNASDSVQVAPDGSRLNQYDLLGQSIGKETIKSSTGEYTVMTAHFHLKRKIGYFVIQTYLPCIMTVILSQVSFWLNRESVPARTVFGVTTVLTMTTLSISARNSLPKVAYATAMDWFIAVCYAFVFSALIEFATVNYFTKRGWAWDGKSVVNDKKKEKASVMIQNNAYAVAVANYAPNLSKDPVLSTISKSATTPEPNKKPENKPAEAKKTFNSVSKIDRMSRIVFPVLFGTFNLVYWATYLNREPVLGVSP
T2 sequence (P28472 26-473 partner): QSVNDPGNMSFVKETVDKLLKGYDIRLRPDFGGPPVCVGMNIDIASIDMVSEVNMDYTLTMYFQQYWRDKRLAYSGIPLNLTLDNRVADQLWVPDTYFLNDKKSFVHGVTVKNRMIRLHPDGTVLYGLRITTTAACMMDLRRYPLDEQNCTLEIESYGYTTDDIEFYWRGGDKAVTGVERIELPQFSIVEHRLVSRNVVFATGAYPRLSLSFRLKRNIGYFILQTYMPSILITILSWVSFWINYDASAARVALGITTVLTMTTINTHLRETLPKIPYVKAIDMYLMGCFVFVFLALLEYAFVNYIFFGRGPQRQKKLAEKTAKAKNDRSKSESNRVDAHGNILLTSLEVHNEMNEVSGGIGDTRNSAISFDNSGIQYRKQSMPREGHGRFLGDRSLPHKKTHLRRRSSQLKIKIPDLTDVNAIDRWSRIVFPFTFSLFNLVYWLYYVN
T2 sequence (P18507 40-475): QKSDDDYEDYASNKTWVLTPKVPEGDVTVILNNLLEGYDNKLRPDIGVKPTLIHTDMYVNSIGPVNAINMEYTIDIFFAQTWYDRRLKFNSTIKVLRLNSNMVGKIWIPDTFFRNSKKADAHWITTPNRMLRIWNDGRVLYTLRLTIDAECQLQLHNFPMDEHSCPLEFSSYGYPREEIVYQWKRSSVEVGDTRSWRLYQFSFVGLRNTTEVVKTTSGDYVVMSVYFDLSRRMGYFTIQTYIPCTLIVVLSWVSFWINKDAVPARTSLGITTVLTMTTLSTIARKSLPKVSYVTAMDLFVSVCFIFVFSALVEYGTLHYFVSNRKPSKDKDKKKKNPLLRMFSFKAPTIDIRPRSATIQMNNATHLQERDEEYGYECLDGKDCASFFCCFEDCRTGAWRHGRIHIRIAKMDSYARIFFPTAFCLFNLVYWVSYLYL
Method: as §1

T1 sequence (P14867 28-456): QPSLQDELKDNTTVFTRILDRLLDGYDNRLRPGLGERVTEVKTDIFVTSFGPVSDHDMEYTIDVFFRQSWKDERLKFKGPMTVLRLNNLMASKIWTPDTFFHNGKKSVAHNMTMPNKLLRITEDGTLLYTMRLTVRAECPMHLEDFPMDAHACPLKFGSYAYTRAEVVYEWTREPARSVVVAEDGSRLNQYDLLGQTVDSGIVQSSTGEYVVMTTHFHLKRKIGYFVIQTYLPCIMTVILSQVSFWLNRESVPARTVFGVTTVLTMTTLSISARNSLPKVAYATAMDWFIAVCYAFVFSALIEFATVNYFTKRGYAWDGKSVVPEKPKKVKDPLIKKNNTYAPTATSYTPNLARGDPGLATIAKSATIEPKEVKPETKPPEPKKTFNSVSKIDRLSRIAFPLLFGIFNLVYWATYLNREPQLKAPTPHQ
T1 sequence (P28472 26-473 partner): as the sequence (P28472 26-473 partner) above
T1 sequence (P18507 40-475): as the sequence (P18507 40-475) above

| SMILES | activation at 0.1 µM [1] [%] | % Inhibition at 1000 nM for CBZD [2] | activation at 0.1 µM [3] [%] | Percentage of potentiation alpha1 [1] | Percentage of potentiation alpha2 [3] |
| --- | --- | --- | --- | --- | --- |
| Cc1cc(Cl)nc(NCc2c(-c3ccc(Cl)cc3)nc3ccccn23)n1 [Compound 159, 4-chloro-N-((2-(4-chlorophenyl)imidazo[1,2-a]pyridin-3-yl)methyl)-6-methylpyrimidin-2-amine] | 10 to 50 | ++ (percentage of inhibition of central BZD site binding is greater than 80% in the presence of 1000 nM of the compound) | 10 to 50 |  |  |
| O=c1nc(N2CCCC2)ccn1Cc1c(-c2ccc(Cl)cc2)nc2ccccn12 [Compound 136, 1-((2-(4-chlorophenyl)imidazo[1,2-a]pyridin-3-yl)methyl)-4-(pyrrolidin-1-yl)pyrimidin-2(1H)-one] | 10 to 50 | ++ (percentage of inhibition of central BZD site binding is greater than 80% in the presence of 1000 nM of the compound) | ≥ 50 |  |  |
| Cc1ccc(-c2nc3ccc(C)cn3c2Cn2nc(C)cc2C)cc1 [Compound 9, 6-Methyl-3-((3,5-dimethyl-1H-pyrazol-1-yl)methyl)-2-p-tolylH-imidazo[1,2-a]pyridine] |  | ++ (percentage of inhibition of central BZD site binding is greater than 80% in the presence of 1000 nM of the compound) |  | + (percentage of potentiation is greater than or equal to 10% but less than 50% in the presence of 100 nM of the compound) | + (percentage of potentiation is greater than or equal to 10% but less than 50% in the presence of 100 nM of the compound) |
| Cc1ccc(-c2nc3ccc(C)cn3c2Cn2ccnc2C)cc1 [Compound 2, 6-Methyl-3-((2-methyl-1H-imidazol-1-yl)methyl)-2-p-tolylH-imidazo[1,2-a]pyridine] |  | ++ (percentage of inhibition of central BZD site binding is greater than 80% in the presence of 1000 nM of the compound) |  | + (percentage of potentiation is greater than or equal to 10% but less than 50% in the presence of 100 nM of the compound) | + (percentage of potentiation is greater than or equal to 10% but less than 50% in the presence of 100 nM of the compound) |
| CC1(O)CCN(c2ccnc(NCc3c(-c4ccccc4)nc4ccc(Cl)cn34)n2)CC1 [Compound 187, 1-(2-((6-chloro-2-phenylimidazo[1,2-a]pyridin-3-yl)methylamino)pyrimidin-4-yl)-4-methylpiperidin-4-ol] | ≤ -10 | ++ (percentage of inhibition of central BZD site binding is greater than 80% in the presence of 1000 nM of the compound) | -10 to 10 |  |  |
| CCOc1ccn(Cc2c(-c3ccc(Cl)cc3)nc3ccccn23)c(=O)n1 [Compound 137, 1-((2-(4-chlorophenyl)imidazo[1,2-a]pyridin-3-yl)methyl)-4-ethoxypyrimidin-2(1H)-one] | 10 to 50 | ++ (percentage of inhibition of central BZD site binding is greater than 80% in the presence of 1000 nM of the compound) | 10 to 50 |  |  |
| CN(C)CCNC(=O)c1nccn1Cc1c(-c2ccc(Cl)cc2)nc2ccccn12 [Compound 78, 1-((2-(4-chlorophenyl)H-imidazo[1,2-a]pyridin-3-yl)methyl)-N-(2-(dimethylamino)ethyl)-1H-imidazole-2-carboxamide] |  | ++ (percentage of inhibition of central BZD site binding is greater than 80% in the presence of 1000 nM of the compound) |  | + (percentage of potentiation is greater than or equal to 10% but less than 50% in the presence of 100 nM of the compound) | + (percentage of potentiation is greater than or equal to 10% but less than 50% in the presence of 100 nM of the compound) |
| CN(C)CCNC1=CC(=O)N(Cc2c(-c3ccc(Cl)cc3)nc3ccccn23)C1 [Compound 237, 1-((2-(4-chlorophenyl)imidazo[1,2-a]pyridin-3-yl)methyl)-4-(2-(dimethylamino)ethylamino)-1H-pyrrol-2(5H)-one] | -10 to 10 | ++ (percentage of inhibition of central BZD site binding is greater than 80% in the presence of 1000 nM of the compound) | 10 to 50 |  |  |
| OC[C@H]1CCCN1c1ccnc(NCc2c(-c3ccccc3)nc3ccc(Cl)cn23)n1 [Compound 188, (R)-(1-(2-((6-chloro-2-phenylimidazo[1,2-a]pyridin-3-yl)methylamino)pyrimidin-4-yl)pyrrolidin-2-yl)methanol] | ≥ 50 | ++ (percentage of inhibition of central BZD site binding is greater than 80% in the presence of 1000 nM of the compound) | ≥ 50 |  |  |
| CNC(=O)c1nc(Cc2c(-c3ccc(F)cc3)nc3ccc(Cl)cn23)no1 [Compound 218, 3-((2-(4-fluorophenyl)-6-chloroimidazo[1,2-a]pyridin-3-yl)methyl)-1,2,4-oxadiazole-5-N-methyl-carboxamide] |  |  |  | + (percentage of potentiation is greater than or equal to 10% but less than 50% in the presence of 100 nM of the compound) | ++ (percentage of potentiation is greater than or equal to 50% in the presence of 100 nM of the compound) |
| Nc1ccn(Cc2c(-c3ccc(Cl)cc3)nc3ccccn23)c(=O)n1 [Compound 106, 4-amino-1-((2-(4-chlorophenyl)imidazo[1,2-a]pyridin-3-yl)methyl)pyrimidin-2(1H)-one] | 10 to 50 |  | 10 to 50 |  |  |
| CNC(=O)c1nc(Cc2c(-c3ccc(F)cc3)nc3ccc(F)cn23)no1 [Compound 221, 3-((6-fluoro-2-(4-fluorophenyl)imidazo[1,2-a]pyridin-3-yl)methyl)-N-methyl-1,2,4-oxadiazole-5-carboxamide] | -10 to 10 |  | 10 to 50 |  |  |
| O=C(NO)c1nc(Cc2c(-c3ccc(F)cc3)nc3ccc(F)cn23)no1 [Compound 223, 3-((2-(4-fluorophenyl)-6-fluoroimidazo[1,2-a]pyridin-3-yl)methyl)-N-hydroxy-1,2,4-oxadiazole-5-carboxamide] | ≤ -10 |  | 10 to 50 |  |  |
| CONC(=O)c1nc(Cc2c(-c3ccc(F)cc3)nc3ccc(F)cn23)no1 [Compound 224, 3-((2-(4-fluorophenyl)-6-fluoroimidazo[1,2-a]pyridin-3-yl)methyl)-N-methyoxy-1,2,4-oxadiazole-5-carboxamide] |  |  |  | 0 (percentage of potentiation is between about 10% to about −10%) | + (percentage of potentiation is greater than or equal to 10% but less than 50% in the presence of 100 nM of the compound) |
| Cc1ccc(-c2nc3ccc(C)cn3c2CNc2nccnn2)cc1 [Compound 145, (6-Methyl-2-p-tolyl-imidazo[1,2-a]pyridin-3-ylmethyl)-[1,2,4]triazin-3-yl-amine] | ≥ 50 |  | 10 to 50 |  |  |
| Clc1ccc(-c2nc3ccccn3c2Cn2nnc3ccccc32)cc1 [Compound 42, 1-((2-(4-chlorophenyl)H-imidazo[1,2-a]pyridin-3-yl)methyl)-1H-benzo[d][1,2,3]triazole] |  |  |  | + (percentage of potentiation is greater than or equal to 10% but less than 50% in the presence of 100 nM of the compound) | + (percentage of potentiation is greater than or equal to 10% but less than 50% in the presence of 100 nM of the compound) |
| NC(=O)c1nc(Cc2c(-c3ccc(Cl)cc3)nc3ccc(F)cn23)no1 [Compound 217, 3-((2-(4-chlorophenyl)-6-fluoroimidazo[1,2-a]pyridin-3-yl)methyl)-1,2,4-oxadiazole-5-carboxamide] | 10 to 50 |  | ≥ 50 |  |  |
| CNC(=O)c1ncn(Cc2c(-c3ccc(Cl)cc3)nc3ccccn23)n1 [Compound 73, 1-((2-(4-chlorophenyl)imidazo[1,2-a]pyridin-3-yl)methyl)-N-methyl-1H-1,2,4-triazole-3-carboxamide] | 10 to 50 |  | 10 to 50 |  |  |
| O=C(NO)c1nc(Cc2c(-c3ccc(Cl)cc3)nc3ccc(F)cn23)no1 [Compound 222, 3-((2-(4-chlorophenyl)-6-fluoroimidazo[1,2-a]pyridin-3-yl)methyl)-N-hydroxy-1,2,4-oxadiazole-5-carboxamide] | -10 to 10 |  | ≥ 50 |  |  |
